Measured values: patent US6448273B1, “Orally active iron (III) chelators” (BTG International Limited, priority 1997, dated 2002)
Structures can show the parent of a compound that is named as a salt. Where two headings read alike, the source gives them in different places.

Key:
[1] = Iron (III) complex stability constant Logβ3; assay type: physicochemical
[2] = Distribution coefficient DpH7.4 (Kpart), octanol/MOPS pH 7.4; assay type: physicochemical
Excerpt: The requirements for orally active chelators are set out in Table 4 of Hider et al as (i) good absorption from tile gastrointestinal tract, (ii) efficient liver extraction, (iii) poor entry into peripheral cells such as thymus, muscle, heart and bone marrow and (iv) poor ability to penetrate the blood-brain barrier and maternal/placental barriers.

pKa of the ligand = assay type: physicochemical
[3] = pM for Iron III (affinity for iron as Fe III); assay type: physicochemical; conditions: negative log ferric ion concentration; total iron 10^-6 M, ligand 10^-5 M
Excerpt: The present inventors now have provided a group of 3-hydroxypyridin-4-one iron chelators having improved properties as compared to the prior art as assessed against the criteria set out above. […] Preferred compounds have efficiency of iron mobilisation of in excess of 52% when given orally to rats. […]

[4] = Iron III Mobilisation Efficacy Assay in Rat: Oral Administration; assay type: in vivo; conditions: for Efficacy: iron mobilisation less control
Description: Control rats were given an equivalent volume of water. The rats were placed in individual metabolic cages and their urine and faeces collected. One hour after the administration they were allowed access to food, with no restriction on water being made throughout the study period. The investigation was terminated 24 hours after the ^59Fe ferritin administration when rats were sacrificed and their livers and gastrointestinal tracts, including all contents including faeces, were removed for gamma counting.

[5] = method marked (p), first pKa, read-out: pKa, first value (p)
[6] = method marked (p), second pKa, read-out: pKa, second value (p)
[7] = method marked (s), first pKa, read-out: pKa, first value (s)
[8] = method marked (s), second pKa, read-out: pKa, second value (s)

CCn1ccc(=O)c(O)c1CO (as salt: hydrochloride) [CP359, 1-Ethyl-2-hydroxymethyl-3-hydroxy-pyridin-4(1H)-one hydrochloride]
melting point: 168 to 169 °C

Cc1cc(=O)c(O)c(CO)n1C (as salt: hydrochloride) [CP360, 1,6-Dimethyl-2-hydroxymethyl-3-hydroxy-pyridin-4(1H)-one hydrochloride]
melting point: 140 to 143 °C

Cc1cc(=O)c(O)c(C(C)O)n1C (stereo not drawn) (as salt: hydrochloride) [CP361, 1,6-Dimethyl-2-(1-hydroxyethyl)-3-hydroxy-pyridin-4(1H)-one hydrochloride]
melting point: 208 to 212 °C

COC(C)c1c(O)c(=O)cc(C)n1C (stereo not drawn) (as salt: hydrochloride) [CP363, 1,6-Dimethyl-2-(1-methoxyethyl)-3-hydroxy-pyridin-4(1H)-one hydrochloride]
melting point: 205 to 207 °C

Cn1ccc(=O)c(O)c1CO (as salt: hydrochloride) [CP364, 1-Methyl-2-hydroxymethyl-3-hydroxy-pyridin-4(1H)-one hydrochloride]
melting point: 157 to 159 °C

O=C(OCCCn1ccc(=O)c(O)c1CO)c1ccccc1 (as salt: hydrochloride) [CP367, 1-[(3-Benzoyloxy)propyl]-2-hydroxymethyl-3-hydroxy-pyridin-4(1H)-one hydrochloride]
melting point: 142 to 143 °C

CCn1c(C)cc(=O)c(O)c1CO (as salt: hydrochloride) [CP369, 1-Ethyl-2-hydroxymethyl-3-hydroxy-6-methyl-pyridin-4(1H)-one hydrochloride]
melting point: 160 to 162 °C

CCn1c(C)cc(=O)c(O)c1COC (as salt: hydrochloride) [CP370, 1-Ethyl-2-methoxymethyl-3-hydroxy-6-methyl-pyridin-4(1H)-one hydrochloride]
melting point: 174 to 176 °C

CC(O)c1c(O)c(=O)ccn1CCCO (stereo not drawn) (as salt: hydrochloride) [CP372, 1-(3-hydroxypropyl)-2-(1-hydroxyethyl)-3-hydroxy-pyridin-4(1H)-one hydrochloride]
melting point: 117 to 120 °C

CCOC(C)c1c(O)c(=O)cc(C)n1C (stereo not drawn) (as salt: hydrochloride) [CP373, 1,6-Dimethyl-2-(1-ethoxyethyl)-3-hydroxy-pyridin-4(1H)-one hydrochloride]
melting point: 195 to 199 °C

CCC(O)c1c(O)c(=O)cc(C)n1C (stereo not drawn) (as salt: hydrochloride) [CP374, 1,6-Dimethyl-2-(1-hydroxypropyl)-3-hydroxy-pyridin-4(1H)-one hydrochloride]
melting point: 221 to 223 °C

CCC(OC)c1c(O)c(=O)cc(C)n1C (stereo not drawn) (as salt: hydrochloride) [CP375, 1,6-Dimethyl-2-(1-methoxypropyl)-3-hydroxy-pyridin-4(1H)-one hydrochloride]
melting point: 225 to 227 °C

COCc1cc(=O)c(O)c(COC)n1C (as salt: hydrochloride) [CP388, 2,6-Dimethoxymethyl-1-methyl-3-hydroxypyridin-4(1H)-one hydrochloride]
melting point: 161 to 163 °C

CNC(=O)c1c(O)c(=O)cc(C)n1C (as salt: hydrochloride) [CP502, 1,6-Dimethyl-3-hydroxy-4(1H)-pyridinone-2-carboxy-(N-methyl)-amide hydrochloride]
melting point: 238 °C (dec.)

COCCNC(=O)c1c(O)c(=O)cc(C)n1C (as salt: hydrochloride) [CP506, 1,6-Dimethyl-3-hydroxy-4(1H)-pyridinone-2-carboxy-(N-2′-methoxyethyl)-amide hydrochloride]
melting point: 204 to 206 °C

Cc1cc(=O)c(O)c(C(=O)NCCO)n1C (as salt: hydrochloride) [CP507, 1,6-Dimethyl-3-hydroxy-4(1H)-pyridinone-2-carboxy-(N-2′-hydroxyethyl)-amide hydrochloride]
melting point: 178 to 181 °C

Cc1cc(=O)c(O)c(C(=O)N(C)C)n1C (as salt: hydrochloride) [CP508, 1,6-Dimethyl-3-hydroxy-4(1H)-pyridinone-2-carboxy-(N,N-dimethyl)-amide hydrochloride]
melting point: 219 °C (dec.)

CCn1ccc(=O)c(O)c1CO [CP359, 1-Ethyl-2-hydroxymethyl-3-hydroxy-pyridin-4(1H)-one hydrochloride]
Logβ3 [1]: 35.25
DpH 7.4 [2]: 0.14
pKa, first value (s) (pKa of the ligand; method marked (s), first pKa): 2.88
pKa, second value (s) (pKa of the ligand; method marked (s), second pKa): 9.05
pMpH 7.45 [3]: 20.96

Cc1cc(=O)c(O)c(CO)n1C [CP360, 1,6-Dimethyl-2-hydroxymethyl-3-hydroxy-pyridin-4(1H)-one hydrochloride]
Logβ3 [1]: 35.51
DpH 7.4 [2]: 0.098
pKa, first value (s) (pKa of the ligand; method marked (s), first pKa): 3.37
pKa, second value (s) (pKa of the ligand; method marked (s), second pKa): 9.42
pMpH 7.45 [3]: 20.43

Cc1cc(=O)c(O)c(C(C)O)n1C (stereo not drawn) [CP361, 1,6-Dimethyl-2-(1-hydroxyethyl)-3-hydroxy-pyridin-4(1H)-one hydrochloride]
Logβ3 [1]: 3.52
DpH 7.4 [2]: 0.25
pKa, first value (s) (pKa of the ligand; method marked (s), first pKa): 3.55
pKa, second value (s) (pKa of the ligand; method marked (s), second pKa): 8.97
pMpH 7.45 [3]: 21.47

COCc1c(O)c(=O)cc(C)n1C [CP362]
DpH 7.4 [2]: 0.42

COC(C)c1c(O)c(=O)cc(C)n1C (stereo not drawn) [CP363, 1,6-Dimethyl-2-(1-methoxyethyl)-3-hydroxy-pyridin-4(1H)-one hydrochloride]
Iron Mobilisation ([4]; 150 μmol/kg): 40.7 ± 2.4%
Efficacy ([4]; 150 μmol/kg): 36.8%
Iron Mobilisation ([4]; 300 μmol/kg): 66.9 ± 8.7%
Efficacy ([4]; 300 μmol/kg): 63.0%
Iron Mobilisation ([4]; 450 μmol/kg): 73.5 ± 8.1%
Efficacy ([4]; 450 μmol/kg): 69.6%
DpH 7.4 [2]: 1.09
pKa (pKa of the ligand; [5]): 3.2
pKa (pKa of the ligand; [6]): 9.44
pKa (pKa of the ligand; [7]): 3.22
pKa (pKa of the ligand; [8]): 9.43

Cn1ccc(=O)c(O)c1CO [CP364, 1-Methyl-2-hydroxymethyl-3-hydroxy-pyridin-4(1H)-one hydrochloride]
Logβ3 [1]: 35.3
DpH 7.4 [2]: 0.048
pKa (pKa of the ligand; [5]): 3.13
pKa (pKa of the ligand; [6]): 9.22
pKa, first value (s) (pKa of the ligand; method marked (s), first pKa): 2.93
pKa (pKa of the ligand; [8]): 9.12
pMpH 7.45 [3]: 20.75

CCn1ccc(=O)c(O)c1C(C)O (stereo not drawn) [CP365, 1-Ethyl-2-(1-hydroxyethyl)-3-hydroxy-pyridin-4(1H)-one hydrochloride]
Logβ3 [1]: 34.8
DpH 7.4 [2]: 0.27
pKa, first value (s) (pKa of the ligand; method marked (s), first pKa): 3.11
pKa, second value (s) (pKa of the ligand; method marked (s), second pKa): 8.74
pMpH 7.45 [3]: 21.3

O=C(OCCCn1ccc(=O)c(O)c1CO)c1ccccc1 [CP367, 1-[(3-Benzoyloxy)propyl]-2-hydroxymethyl-3-hydroxy-pyridin-4(1H)-one hydrochloride]
DpH 7.4 [2]: 5.61
pKa (pKa of the ligand; [5]): 2.6
pKa (pKa of the ligand; [6]): 9.07
pKa (pKa of the ligand; [7]): 2.7
pKa (pKa of the ligand; [8]): 8.95

CCn1c(C)cc(=O)c(O)c1COC [CP370, 1-Ethyl-2-methoxymethyl-3-hydroxy-6-methyl-pyridin-4(1H)-one hydrochloride]
DpH 7.4 [2]: 1.08

CCOC(C)c1c(O)c(=O)cc(C)n1C (stereo not drawn) [CP373, 1,6-Dimethyl-2-(1-ethoxyethyl)-3-hydroxy-pyridin-4(1H)-one hydrochloride]
DpH 7.4 [2]: 3.32

CCC(OC)c1c(O)c(=O)cc(C)n1C (stereo not drawn) [CP375, 1,6-Dimethyl-2-(1-methoxypropyl)-3-hydroxy-pyridin-4(1H)-one hydrochloride]
Iron Mobilisation ([4]; 150 μmol/kg): 40.2 ± 8.5%
Efficacy ([4]; 150 μmol/kg): 36.3%
Iron Mobilisation ([4]; 450 μmol/kg): 72.0 ± 8.2%
Efficacy ([4]; 450 μmol/kg): 68.1%
DpH 7.4 [2]: 3.85

Cn1c(CO)cc(=O)c(O)c1CO [CP387]
DpH 7.4 [2]: 0.04
